For one experiment, the system named is exosome secretion. Description: Exosome secretion measured by protein concentration. It is filed as cell-based.
Experiment [1] has as its system reconstituted dental epithelium and mesenchyme tissues. Description: Organ culture of reconstituted E16.5 dental epithelium and mesenchyme tissue, dentin formation. It is filed as cell-based. The conditions noted are these: 10 uM, control formed dentin at day 10. On the procedure: E16.5 epithelium and mesenchyme tissue (see e.g., FIG. 9A) were reconstituted (see e.g., FIG. 9B) under dissection microscope. The reconstituted organ were cultured for 12 days (see e.g., FIG. 9C-D).

Data on one molecule can be found in patent US20160120805A1, “EXOSOMES FOR OROFACIAL DIAGNOSTICS AND THERAPEUTICS” (THE TRUSTEES OF COLUMBIA UNIVERSITY IN THE CITY OF NEW YORK, priority 2013, published 2016).

Each structure is given as a SMILES string.

Turning to `O=C(/C=C/c1ccc(/C=C/C(=O)Nc2ccc(C3=NCCN3)cc2)cc1)Nc1ccc(C2=NCCN2)cc1` [GW4869], the exosome secretion result in the experiment with exosome secretion (1.0 uM) and in the experiment on exosome secretion (10.0 uM) was “decreased” throughout. The dentin formation entry in experiment [1] is reported as “No dentin formed”.
